Measurements reported in patent US20170217946A1, “AMINO-SUBSTITUTED ISOXAZOLES” (Bayer Pharma Aktiengesellschaft, priority 2014, published 2017).
pIC50: −log10 of the molar value.

Assays:
[1] = biological target: T1, CDK2/CycE (Homo sapiens, UniProt P24941); test: CDK2/CycE kinase assay (TR-FRET); format: biochemical; settings: 10 μM ATP
T1 construct: GST; purchased ProQinase GmbH (Freiburg, Germany); host or cells: insect cells (Sf9)
Text: CDK2/CycE-inhibitory activity of compounds of the present invention was quantified employing the CDK2/CycE TR-FRET assay as described in the following paragraphs.
Recombinant fusion proteins of GST and human CDK2 and of GST and human CycE, expressed in insect cells (Sf9) and purified by Glutathion-Sepharose affinity chromatography, were purchased from ProQinase GmbH (Freiburg, Germany). As substrate for the kinase reaction biotinylated peptide biotin-Ttds-YISPLKSPYKISEG (C-terminus in amid form) was used which can be purchased e.g. form the company JERINI peptide technologies (Berlin, Germany).
For the assay 50 nl of a 100 fold concentrated solution of the test compound in DMSO was pipetted into a black low volume 384 well microtiter plate (Greiner Bio-One, Frickenhausen, Germany), 2 μl of a solution of CDK2/CycE in aqueous assay buffer [50 mM Tris/HCl pH 8.0, 10 mM MgCl2, 1.0 mM dithiothreitol, 0.1 mM sodium ortho-vanadate, 0.01% (v/v) Nonidet-P40 (Sigma)] were added and the mixture was incubated for 15 min at 22° C. to allow pre-binding of the test compounds to the enzyme before the start of the kinase reaction. Then the kinase reaction was started by the addition of 3 μl of a solution of adenosine-tri-phosphate (ATP, 16.7 μM=>final conc. in the 5 μl assay volume is 10 μM) and substrate (1.25 μM=>final conc. in the 5 μl assay volume is 0.75 μM) in assay buffer and the resulting mixture was incubated for a reaction time of 25 min at 22° C. […]
The resulting mixture was incubated 1 h at 22° C. to allow the formation of complex between the phosphorylated biotinylated peptide and the detection reagents. Subsequently the amount of phosphorylated substrate was evaluated by measurement of the resonance energy transfer from the Eu-chelate to the streptavidine-XL. Therefore, the fluorescence emissions at 620 nm and 665 nm after excitation at 350 nm was measured in a TR-FRET reader, e.g. a Rubystar (BMG Labtechnologies, Offenburg, Germany) or a Viewlux (Perkin-Elmer). […]

[2] = system: HeLa cells; test: Proliferation assay (crystal violet); format: cell-based; settings: Homo sapiens, 96 h, 4 days incubation, read-out: Inhibition of proliferation HeLa IC50
Procedure: Cultivated tumor cells (cells were ordered from ATCC, except HeLa-MaTu and HeLa-MaTu-ADR, which were ordered from EPO-GmbH, Berlin) were plated at a density of 1000 to 5000 cells/well, depending on the growth rate of the respective cell line, in a 96-well multititer plate in 200 μL of their respective growth medium supplemented 10% fetal calf serum. After 24 hours, the cells of one plate (zero-point plate) were stained with crystal violet (see below), while the medium of the other plates was replaced by fresh culture medium (200 μl), to which the test substances were added in various concentrations (0 μM, as well as in the range of 0.001-10 μM; the final concentration of the solvent dimethyl sulfoxide was 0.5%). The cells were incubated for 4 days in the presence of test substances. Cell proliferation was determined by staining the cells with crystal violet: the cells were fixed by adding 20 μl/measuring point of an 11% glutaric aldehyde solution for 15 minutes at room temperature. After three washing cycles of the fixed cells with water, the plates were dried at room temperature. The cells were stained by adding 100 μl/measuring point of a 0.1% crystal violet solution (pH 3.0). After three washing cycles of the stained cells with water, the plates were dried at room temperature. The dye was dissolved by adding 100 μl/measuring point of a 10% acetic acid solution. Absorption was determined by photometry at a wavelength of 595 nm. The change of cell number, in percent, was calculated by normalization of the measured values to the absorption values of the zero-point plate (=0%) and the absorption of the untreated (0 μm) cells (=100%). The IC50 values were determined by means of a 4 parameter fit.

| pIC50 [1] | pIC50 [2] | SMILES |
| --- | --- | --- |
| < 4.70 | 5.47 | Cc1noc(Nc2cnc(C(=O)NC3CCN(CC(F)F)CC3)cn2)c1C(=O)Nc1ccc(F)c(F)c1 [Example 1b, N-[1-(2,2-Difluoroethyl)piperidin-4-yl]-5-({4-[(3,4-difluorophenyl)carbamoyl]-3-methyl-1,2-oxazol-5-yl}amino)pyrazine-2-carboxamide] |
| < 4.70 | 6.03 | Cc1noc(Nc2cnc(C(F)(F)F)cn2)c1C(=O)Nc1ccc(F)c(F)c1 [Example 1c, N-(3,4-Difluorophenyl)-3-methyl-5-{[5-(trifluoromethyl)pyrazin-2-yl]amino}-1,2-oxazole-4-carboxamide] |
| < 4.70 | 5.72 | Cc1noc(Nc2cnc(C(F)(F)F)cn2)c1C(=O)Nc1ccc(OC2CCN(CCC(F)(F)F)CC2)nc1 [Example 1a, 3-Methyl-5-{[5-(trifluoromethyl)pyrazin-2-yl]amino}-N-(6-{[1-(3,3,3-trifluoropropyl)-piperidin-4-yl]oxy}pyridin-3-yl)-1,2-oxazole-4-carboxamide] |
